{"source": "DBAASP", "test_in_all_cases": "≥ marks a high value that may be exact or a test limit, other limits are often not marked, values filed in µg/mL are converted to µM", "key": {"[1]": {"test_system": "Candida albicans ATCC 90028"}, "[2]": {"test_system": "Candida albicans CIB 45437"}, "[3]": {"test_system": "Staphylococcus aureus CIB 85462"}, "[4]": {"test_system": "Escherichia coli ATCC 25922"}, "[5]": {"test_system": "Staphylococcus aureus NCTC 8325"}, "[6]": {"test_system": "Escherichia coli CIB 84492"}, "[7]": {"test_system": "Staphylococcus aureus ATCC 25923"}, "[8]": {"test_system": "Bacillus thuringiensis serovar israelensis"}, "[9]": {"test_system": "Escherichia coli D31 CGSC 5165"}, "[10]": {"test_system": "Candida glabrata ATCC 2001"}, "[11]": {"test_system": "Escherichia coli DH5alpha"}, "[12]": {"test_system": "Candida glabrata IFM 46861"}, "Candida albicans SC5314": {"test_system": "Candida albicans SC5314"}, "[13]": {"test_system": "Candida tropicalis IFM 46862"}, "Candida krusei IFN 5462": {"test_system": "Candida krusei IFN 5462"}, "Listeria ivanovii LMA 94": {"test_system": "Listeria ivanovii LMA 94"}, "[14]": {"test_system": "Lactococcus lactis subsp. cremoris I116"}, "[15]": {"test_system": "Klebsiella pneumoniae CIP 8291"}, "[16]": {"test_system": "Staphylococcus aureus CIP 677"}}, "note": "Values joined by “and” are separate entries in the source; they are usually repeats but may differ in a detail not shown here. Equal entries are not always repeated."}
{"compound": "CC(C)C[C@H](NC(=O)CN)C(=O)N[C@@H](CC(C)C)C(=O)N[C@@H](CC(=O)O)C(=O)N[C@H](C(=O)N[C@@H](Cc1ccccc1)C(=O)N[C@@H](CCCCN)C(=O)N[C@@H](CC(N)=O)C(=O)N[C@@H](CC(C)C)C(=O)N[C@@H](C)C(=O)N[C@@H](CC(C)C)C(=O)N[C@@H](CC(N)=O)C(=O)N[C@@H](C)C(=O)N[C@@H](C)C(=O)N[C@@H](CCCCN)C(=O)N[C@@H](CO)C(=O)N[C@@H](C)C(=O)NCC(=O)N[C@H](C(=O)N[C@@H](CO)C(=O)N[C@H](C(=O)N[C@@H](CC(C)C)C(=O)N[C@@H](CC(N)=O)C(=O)N[C@@H](CO)C(=O)N[C@@H](CC(C)C)C(=O)N[C@@H](CO)C(=O)N[C@H]1CSSC[C@@H](C(=O)O)NC(=O)[C@H]([C@@H](C)O)NC(=O)[C@H](CCCCN)NC(=O)[C@H](CO)NC(=O)[C@H](CC(C)C)NC(=O)[C@H](CCCCN)NC1=O)C(C)C)C(C)C)[C@@H](C)O", "note": "[GLLDTFKNLALNAAKSAGVSVLNSLSCKLSKTC]", "values": [{"measurement": "MIC", "setting": "[1]", "result": "≥ 100", "unit": "µM"}, {"measurement": "MIC", "setting": "[2]", "result": 19, "unit": "µM"}, {"measurement": "MIC", "setting": "[3]", "result": 19, "unit": "µM"}, {"measurement": "MIC", "setting": "[4]", "result": 12.5, "unit": "µM"}, {"measurement": "MIC", "setting": "[5]", "result": "≥ 50", "unit": "µM"}, {"measurement": "MIC", "setting": "[6]", "result": "≥ 38", "unit": "µM"}, {"measurement": "MIC", "setting": "[7]", "result": 19, "unit": "µM"}]}
{"compound": "CC[C@H](C)[C@H](NC(=O)[C@H](Cc1ccccc1)NC(=O)[C@H](CCCCN)NC(=O)[C@H](C)NC(=O)[C@@H](NC(=O)[C@H](CO)NC(=O)[C@H](CCCCN)NC(=O)[C@H](CCSC)NC(=O)[C@@H](NC(=O)[C@H](CCCCN)NC(=O)[C@H](Cc1ccccc1)NC(=O)[C@H](Cc1c[nH]c2ccccc12)NC(=O)[C@H](CCCCN)NC(=O)[C@@H](NC(=O)[C@@H](N)CCCCN)[C@@H](C)CC)[C@@H](C)O)[C@@H](C)CC)C(=O)N[C@@H](C)C(=O)N[C@@H](CCCCN)C(=O)N[C@@H](CCC(=O)O)C(=O)N[C@@H](CCC(N)=O)C(=O)N[C@@H](CCSC)C(=O)N[C@@H](CCCCN)C(=O)N[C@@H](CCCCN)C(=O)N[C@@H](Cc1cnc[nH]1)C(=O)N[C@@H](CC(C)C)C(=O)NCC(=O)NCC(=O)N[C@@H](CCC(=O)O)C(=O)O", "note": "[KIKWFKTMKSIAKFIAKEQMKKHLGGE]", "values": [{"measurement": "MIC", "setting": "[8]", "result": 24.5, "unit": "µM"}, {"measurement": "MIC", "setting": "[9]", "result": 10, "unit": "µM"}, {"measurement": "MIC", "setting": "[10]", "result": "≥ 122", "unit": "µM"}, {"measurement": "MIC", "setting": "[11]", "result": "≥ 40", "unit": "µM"}]}
{"compound": "CC(C)[C@H](N)C(=O)N[C@@H](CO)C(=O)N[C@@H](CCCN=C(N)N)C(=O)N[C@@H](CCCN=C(N)N)C(=O)N[C@@H](CCCN=C(N)N)C(=O)N[C@@H](CCCN=C(N)N)C(=O)N[C@@H](CCCN=C(N)N)C(=O)N[C@@H](CCCN=C(N)N)C(=O)NCC(=O)NCC(=O)N[C@@H](CCCN=C(N)N)C(=O)N[C@@H](CCCN=C(N)N)C(=O)N[C@@H](CCCN=C(N)N)C(=O)N[C@@H](CCCN=C(N)N)C(=O)O", "note": "[VSRRRRRRGGRRRR]", "values": [{"measurement": "MIC", "setting": "[12]", "result": 2.5, "unit": "µM"}, {"measurement": "MIC", "setting": "Candida albicans SC5314", "result": "1.6 µM and 2.5 µM"}, {"measurement": "MIC", "setting": "[13]", "result": 2.5, "unit": "µM"}, {"measurement": "MIC", "setting": "Candida krusei IFN 5462", "result": 2.5, "unit": "µM"}]}
{"compound": "CC[C@H](C)[C@H](NC(=O)[C@H](CCCCN)NC(=O)[C@H](CC(C)C)NC(=O)[C@H](C)NC(=O)[C@H](CO)NC(=O)CNC(=O)[C@H](CC(C)C)NC(=O)[C@@H](N)Cc1c[nH]c2ccccc12)C(=O)NCC(=O)N[C@@H](C)C(=O)N[C@@H](CCCCN)C(=O)N[C@@H](CC(C)C)C(=O)N[C@@H](CC(C)C)C(=O)N1CCC[C@H]1C(=O)N[C@@H](CO)C(=O)N[C@H](C(=O)N[C@H](C(=O)NCC(=O)N[C@@H](CC(C)C)C(=O)N[C@@H](Cc1ccccc1)C(=O)N[C@@H](CCCCN)C(=O)N[C@@H](CCCCN)C(=O)N[C@@H](CCCCN)C(=O)N[C@@H](CCCCN)C(=O)N[C@@H](CCC(N)=O)C(=O)O)C(C)C)C(C)C", "note": "[WLGSALKIGAKLLPSVVGLFKKKKQ]", "values": [{"measurement": "MIC", "setting": "Listeria ivanovii LMA 94", "result": 8, "unit": "µM"}, {"measurement": "MIC", "setting": "[14]", "result": 4, "unit": "µM"}, {"measurement": "MIC", "setting": "[15]", "result": "≥ 64", "unit": "µM"}, {"measurement": "MIC", "setting": "[16]", "result": 8, "unit": "µM"}]}
